Where two headings read alike, the source gives them in different places.
Columns and labels:
BACE = BACE (Homo sapiens, UniProt P56817); assay: In vitro enzymatic BACE FRET assay; format: biochemical; settings: average IC50, enzyme assay; read-out: BACE 1 FRET assay
How it was run: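 Fluorescence […] after Tris quench reports cleavage of a 50 nM quenched peptide substrate over 1 h. Beforehand, 0.2 nM enzyme sits 1 h with inhibitor dilutions. Buffer: 0.05 M acetate pH 4.2, 100 uM genapol, 10% DMSO final.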

Abeta 40 = assay: In vivo inhibition of beta-secretase: Abeta 40 reduction in CSF and brain of the rat; settings: after 4 hrs; for inhibition in vivo at 10 mg/kg: 10 mpk
From the text: In Vivo Inhibition of Beta-Secretase
Several animal models, including mouse, rat, dog, and monkey, may be used to screen for inhibition of beta-secretase activity in vivo following administration of a test compound sample. Animals used in this invention can be wild type, transgenic, or gene knockout animals. For example, the Tg2576 mouse model, prepared and conducted as described in Hsiao et al., 1996, Science 274, 99-102, and other non-transgenic or gene knockout animals are useful to analyze in vivo inhibition of Amyloid beta peptide (Abeta) production in the presence of inhibitory test compounds. Generally, 2 to 18 month old Tg2576 mice, gene knockout mice or non-transgenic animals are administered test compounds formulated in vehicles, such as cyclodextran, phosphate buffers, hydroxypropyl methylcellulose or other suitable vehicles. One to twenty-four hours following the administration of compound, animals are sacrificed, and brains as well as cerebrospinal fluid (CSF) and plasma are removed for analysis of A-beta levels and drug or test compound concentrations (Dovey et al., 2001, Journal of Neurochemistry, 76,173-181) Beginning at time 0, animals are administered by oral gavage, or other means of delivery such as intravenous injection, an inhibitory test compound of up to 100 mg/kg in a standard, conventional formulation, such as 2% hydroxypropyl methylcellulose, 1% Tween80. A separate group of animals receive 2% hydroxypropyl methylcellulose, 1% Tween80 alone, containing no test compound, and serve as a vehicle-control group. At the end of the test period, animals are sacrificed and brain tissues, plasma or cerebrospinal fluid are collected. Brains are either homogenized in 10 volumes (w/v) of 0.2% diethylamine (DEA) in 50 mM NaCl (Best et al., 2005, Journal of Pharmacology and Experimental Therapeutics, 313, 902-908), or in 10 volumes of 0.5% TritonX-100 in Tris-buffered saline (pH at about 7.6). Homogenates are centrifuged at 355,000 g, 4° C. for 30 minutes. CSF or brain supernatants are then analyzed for the presence of A-beta peptide by specific sandwich ELISA assays based on ECL (Electrochemiluminescence) technology. For example, rat Abeta40 is measured using biotinylated-4G8 (Signet) as a capture antibody and Fab40 (an in-house antibody specific to the C-terminal of Abeta40) as a detection antibody. For example, 4 hours after administration of 30 mg/kg oral dose of the test compound in 2% hydroxypropyl methylcellulose, 1% Tween80 (pH2.2) to 200 g male Sprague Dawley rats, amyloid beta peptide levels are measured for reduction by X % and Y % in cerebrospinal fluid and brain, respectively, when compared to the levels measured in the vehicle-treated rats. • Actual vehicles used: Oral: 2% HPMC, 1% Tween80, pH 2.2 • IV: 5% EtOH, 45% Propylene glycol in 5% Dextrose
The compounds of the invention may be shown to reduce the formation and/or deposition of amyloid beta peptide in the cerebrospinal fluid (CSF) as well as in the brain of a mouse or rat at either 3 mpk, 10 mpk or 30 mpk (mpk=mg compound per kg weight of the animal) dosing concentrations after 4 hrs.

Aβ40 = assay: In vitro BACE cell-based assay (Aβ40 sandwich ELISA, cells stably expressing APP); settings: Homo sapiens
How it was run: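 Read-out is Aβ40 in cell supernatants, quantified by sandwich ELISA (capture 3 h, detection 2 h, both 4° C) with Delfia time-resolved fluorescence. Cells stably expressing APP were dosed across 10 concentrations from 100 μM or 10 μM top, 0.1% DMSO final; IC50 fitted from percent of control.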

[1] = Abeta 40, rat CSF, read-out: % reduction of rat CSF levels at 10 pmk
[2] = Abeta 40, rat brain, read-out: % reduction of rat brain levels at 10 mpk
[3] = HEK293, average IC50, read-out: HEK cell assay
[4] = HEK293, average IC50, cell assay, HEK cells

BACE, sequence (P56817 46-501, species assumed): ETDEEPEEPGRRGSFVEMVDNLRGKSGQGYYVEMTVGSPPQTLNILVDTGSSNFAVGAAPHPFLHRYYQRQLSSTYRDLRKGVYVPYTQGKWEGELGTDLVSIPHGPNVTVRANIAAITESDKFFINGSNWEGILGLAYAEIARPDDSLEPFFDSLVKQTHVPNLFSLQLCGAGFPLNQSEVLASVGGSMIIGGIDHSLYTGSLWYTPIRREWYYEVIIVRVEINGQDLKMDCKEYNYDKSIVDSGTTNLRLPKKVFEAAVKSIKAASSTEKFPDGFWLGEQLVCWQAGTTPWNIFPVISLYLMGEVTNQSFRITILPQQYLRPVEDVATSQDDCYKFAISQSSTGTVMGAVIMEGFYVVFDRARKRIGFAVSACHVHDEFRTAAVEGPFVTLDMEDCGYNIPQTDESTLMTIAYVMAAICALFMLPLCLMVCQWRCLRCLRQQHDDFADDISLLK

Row | IC50 (BACE) [nM] | IC50 (Aβ40; [3]) [nM] | IC50 (Aβ40; [4]) [nM] | Structure (SMILES) | inhibition in vivo at 10 mg/kg (Abeta 40; [1]) [%] | inhibition in vivo at 10 mg/kg (Abeta 40; [2]) [%] | % reduction of rat CSF levels (Abeta 40; Abeta 40, rat CSF, at 30 mpk) [% at 30 mpk] | % reduction of rat brain levels (Abeta 40; Abeta 40, rat brain, at 30 mpk) [% at 30 mpk] | % reduction of rat CSF levels (Abeta 40; Abeta 40, rat CSF) [% at 3 mpk] | % reduction of rat brain levels (Abeta 40; Abeta 40, rat brain) [% at 3 mpk]
1 | 0.4 | 0.4 | – | NC1=N[C@@]2(COC1)c1cc(-c3cccnc3F)ccc1Oc1c2cc(C2=CCCOC2)nc1F [Example 249, (S)-3-(5,6-dihydro-2H-pyran-3-yl)-1-fluoro-7-(2-fluoropyridin-3-yl)-2′,6′-dihydrospiro[chromeno[2,3-c]pyridine-5,3′-[1,4]oxazin]-5′-amine] | 72 | 59 | – | – | – | –
2 | 2.6 | 6 | – | NC1=N[C@@]2(CCO1)c1cc(-c3cccnc3F)ccc1Oc1c(F)cc(C3=CCOCC3)cc12 [Example 163, (S)-2′-(3,6-dihydro-2H-pyran-4-yl)-4′-fluoro-7′-(2-fluoropyridin-3-yl)-5,6-dihydrospiro[[1,3]oxazine-4,9′-xanthen]-2-amine] | 52 | 28 | – | – | – | –
3 | 2.2 | – | 1.5 | NC1=N[C@@]2(CCO1)c1cc(-c3cncc(F)c3)ccc1Oc1cnc(C3=CCCOC3)cc12 [Example 146, (S)-3-(5,6-dihydro-2H-pyran-3-yl)-7-(5-fluoropyridin-3-yl)-5′,6′-dihydrospiro[chromeno[2,3-c]pyridine-5,4′-[1,3]oxazin]-2′-amine] | 75 | 62 | – | – | – | –
4 | 0.4 | – | 0.8 | NC1=N[C@@]2(COC1)c1cc(-c3cccnc3F)ccc1Oc1cnc(N3CCC(F)(F)C3)cc12 [Example 74, (5S)-3-(3,3-difluoro-1-pyrrolidinyl)-7-(2-fluoro-3-pyridinyl)-6′H-spiro[chromeno[2,3-c]pyridine-5,3′-[1,4]oxazin]-5′-amine] | 47 | 26 | – | – | – | –
5 | 0.4 | – | 1.1 | CC(C)(C)COc1cc2c(cn1)Oc1ccc(-c3cccnc3F)cc1[C@@]21COCC(N)=N1 [Example 33, (S)-7-(2-fluoropyridin-3-yl)-3-(neopentyloxy)-2′,6′-dihydrospiro[chromeno[2,3-c]pyridine-5,3′-[1,4]oxazin]-5′-amine] | 61 | 48 | – | – | – | –
6 | 1.8 | – | 2.1 | NC1=N[C@@]2(CCO1)c1cc(-c3cccnc3F)ccc1Oc1cnc(C3=CCOCC3)cc12 [Example 111, (5S)-3-(3,6-dihydro-2H-pyran-4-yl)-7-(2-fluoro-3-pyridinyl)-5′,6′-dihydrospiro[chromeno[2,3-c]pyridine-5,4′-[1,3]oxazin]-2′-amine] | 81 | 67 | – | – | – | –
7 | 1.1 | 2.9 | – | NC1=N[C@@]2(CCO1)c1cc(-c3cccnc3F)ccc1Oc1c(F)cc(C3=CCCOC3)cc12 [Example 173, (S)-2′-(5,6-dihydro-2H-pyran-3-yl)-4′-fluoro-7′-(2-fluoropyridin-3-yl)-5,6-dihydrospiro[[1,3]oxazine-4,9′-xanthen]-2-amine] | 40 | 14 | – | – | – | –
8 | 6 | 8.2 | – | NC1=N[C@@]2(CCO1)c1cc(-c3cccnc3F)ccc1Oc1c(F)cc(-c3ccncc3)cc12 [Example 166, (S)-4′-fluoro-7′-(2-fluoropyridin-3-yl)-2′-(pyridin-4-yl)-5,6-dihydrospiro[[1,3]oxazine-4,9′-xanthen]-2-amine] | 42 | 25 | – | – | – | –
9 | 4.4 | 9.6 | – | NC1=N[C@@]2(CCO1)c1cc(-c3cccnc3F)ccc1Oc1c(F)cc(N3CCC(F)(F)CC3)cc12 [Example 185, (4S)-2′-(4,4-difluoro-1-piperidinyl)-4′-fluoro-7′-(2-fluoro-3-pyridinyl)-5,6-dihydrospiro[1,3-oxazine-4,9′-xanthen]-2-amine] | – | – | 53 | 26 | – | –
10 | 2.8 | 2.7 | – | NC1=N[C@@]2(CCO1)c1cc(-c3cccnc3)ccc1Oc1c(F)cc(C3=CCCOC3)cc12 [Example 164, (S)-2′-(5,6-dihydro-2H-pyran-3-yl)-4′-fluoro-7′-(pyridin-3-yl)-5,6-dihydrospiro[[1,3]oxazine-4,9′-xanthen]-2-amine] | 35 | 12 | – | – | – | –
11 | 0.5 | – | 1.8 | NC1=N[C@@]2(CCO1)c1cc(-c3cccnc3F)ccc1Oc1c2cc(-c2ccnc(F)c2)nc1F [Example 107, (S)-1-fluoro-7-(2-fluoropyridin-3-yl)-3-(2-fluoropyridin-4-yl)-5′,6′-dihydrospiro[chromeno[2,3-c]pyridine-5,4′-[1,3]oxazin]-2′-amine] | 82 | 72 | – | – | – | –
12 | 0.5 | – | 0.5 | NC1=N[C@@]2(CCO1)c1cc(-c3cccnc3F)ccc1Oc1c2cc(C2=CCCOC2)nc1F [Example 110, (S)-3-(5,6-dihydro-2H-pyran-3-yl)-1-fluoro-7-(2-fluoropyridin-3-yl)-5′,6′-dihydrospiro[chromeno[2,3-c]pyridine-5,4′-[1,3]oxazin]-2′-amine] | 86 | 79 | – | – | – | –
13 | 0.4 | – | 1.6 | NC1=N[C@@]2(COC1)c1cc(-c3cccnc3)ccc1Oc1cnc(-c3ccc(F)c(F)c3)cc12 [Example 115, (S)-3-(3,4-difluorophenyl)-7-(pyridin-3-yl)-2′,6′-dihydrospiro[chromeno[2,3-c]pyridine-5,3′-[1,4]oxazin]-5′-amine] | 38 | 21 | – | – | – | –
14 | 0.6 | – | 0.7 | CC(C)(C)COc1cc2c(cn1)Oc1ccc(-c3cncc(F)c3)cc1[C@@]21COCC(N)=N1 [Example 120, (S)-7-(5-fluoropyridin-3-yl)-3-(neopentyloxy)-2′,6′-dihydrospiro[chromeno[2,3-c]pyridine-5,3′-[1,4]oxazin]-5′-amine] | – | – | – | – | 30 | 24
15 | 0.6 | – | 0.4 | CC(C)(C)COc1cc2c(cn1)Oc1ccc(-c3cccnc3)cc1[C@@]21COCC(N)=N1 [Example 119, (S)-3-(neopentyloxy)-7-(pyridin-3-yl)-2′,6′-dihydrospiro[chromeno[2,3-c]pyridine-5,3′-[1,4]oxazin]-5′-amine] | – | – | – | – | 5 | 6
16 | 2 | – | 2.6 | NC1=N[C@@]2(CCO1)c1cc(-c3cccnc3F)ccc1Oc1cnc(C3=CCCOC3)cc12 [Example 153, (S)-3-(5,6-dihydro-2H-pyran-3-yl)-7-(2-fluoropyridin-3-yl)-5′,6′-dihydrospiro[chromeno[2,3-c]pyridine-5,4′-[1,3]oxazin]-2′-amine] | 78 | 64 | – | – | – | –
17 | 4.8 | 6.9 | – | NC1=N[C@@]2(CCO1)c1cc(-c3cccnc3F)ccc1Oc1c(F)cc(N3CCOCC3)cc12 [Example 184, (S)-4′-fluoro-7′-(2-fluoropyridin-3-yl)-2′-morpholino-5,6-dihydrospiro[[1,3]oxazine-4,9′-xanthen]-2-amine] | 19 | 12 | – | – | – | –
